Organism: Rattus norvegicus
Test: Open TG-GATES - Regimen: Single
Assay type: toxicity, organism-based, Sprague-Dawley
Parameters: regimen Single, gender Male, age 6 weeks
Conditions: in vivo, po, route gavage; for Bas / Eos / Fbg / Hb / Ht / Lym / MCHC / MCV / Mono / Neu / PT / Plat / RBC / Ret / WBC / APTT: tissue Blood; for KIDNEY_L / KIDNEY_R / KIDNEY_TOTAL: tissue Kidney; for LIVER: tissue Liver; for ALP / ALT / AST / BUN / CRE / Ca / Cl / DBIL / GLC / IP / K / LDH / Na / PL / RALB / TBIL / TG / TP / gamma-GTP / TC: tissue Plasma
[1] = 300 mg/kg, 3 h, dose level Middle
[2] = 300 mg/kg, 6 h, dose level Middle
[3] = 300 mg/kg, 9 h, dose level Middle
[4] = 300 mg/kg, 24 h, dose level Middle
[5] = 1000 mg/kg, 3 h, dose level High
[6] = 1000 mg/kg, 6 h, dose level High
[7] = 1000 mg/kg, 9 h, dose level High
[8] = 1000 mg/kg, 24 h, dose level High

CN(C)C(=N)N=C(N)N [METFORMIN]
Bas [1]: 0%
Eos [1]: 1%
Fbg [1]: 256.8 mg/dL
Hb [1]: 12.8 g/dL
Ht [1]: 39.1%
Lym [1]: 72.6%
MCHC [1]: 32.9%
MCV [1]: 64.2 fL
Mono [1]: 2.8%
Neu [1]: 23.2%
PT [1]: 12.3 s
Plat [1]: 125.2 x10_4/uL
RBC [1]: 612.2 x10_4/ul
Ret [1]: 10.1%
WBC [1]: 96 x10_2/uL
KIDNEY_L [1]: 0.9 g
KIDNEY_R [1]: 0.9 g
KIDNEY_TOTAL [1]: 1.7 g
LIVER [1]: 8.1 g
ALP [1]: 1196.4 IU/L
ALT [1]: 58 IU/L
AST [1]: 77.2 IU/L
BUN [1]: 8.8 mg/dL
CRE [1]: 0.2 mg/dL
Ca [1]: 11.1 mg/dL
Cl [1]: 106.2 meq/L
DBIL [1]: 0.01 mg/dL
GLC [1]: 156.2 mg/dL
IP [1]: 9 mg/dL
K [1]: 3.8 meq/L
LDH [1]: 65 IU/L
Na [1]: 140.6 meq/L
PL [1]: 132.2 mg/dL
RALB [1]: 2.5 g/dL
TBIL [1]: 0.038 mg/dL
TG [1]: 46.2 mg/dL
TP [1]: 5.2 g/dL
gamma-GTP [1]: 1.2 IU/L
TERMINAL_BW [2]: 200 g
APTT [2]: 16.3 s
Bas [2]: 0.2%
Eos [2]: 1%
Fbg [2]: 254 mg/dL
Hb [2]: 12.8 g/dL
Ht [2]: 38.1%
Lym [2]: 75.6%
MCHC [2]: 33.6%
MCV [2]: 63 fL
Mono [2]: 3%
Neu [2]: 20.2%
PT [2]: 12.5 s
Plat [2]: 113.5 x10_4/uL
RBC [2]: 604.4 x10_4/ul
Ret [2]: 9.6%
WBC [2]: 95.4 x10_2/uL
KIDNEY_L [2]: 0.9 g
KIDNEY_R [2]: 0.9 g
KIDNEY_TOTAL [2]: 1.7 g
LIVER [2]: 7.3 g
ALP [2]: 1116.6 IU/L
ALT [2]: 85 IU/L
AST [2]: 85.6 IU/L
BUN [2]: 8.4 mg/dL
CRE [2]: 0.2 mg/dL
Ca [2]: 11 mg/dL
Cl [2]: 105.6 meq/L
DBIL [2]: 0.004 mg/dL
GLC [2]: 153.4 mg/dL
IP [2]: 10.3 mg/dL
K [2]: 4.1 meq/L
LDH [2]: 51.8 IU/L
Na [2]: 140 meq/L
PL [2]: 126 mg/dL
RALB [2]: 2.5 g/dL
TBIL [2]: 0.04 mg/dL
TG [2]: 28.2 mg/dL
TP [2]: 5.1 g/dL
gamma-GTP [2]: 1 IU/L
TERMINAL_BW [3]: 199.7 g
APTT [3]: 15.9 s
Bas [3]: 0%
Eos [3]: 1%
Fbg [3]: 250.2 mg/dL
Hb [3]: 12.8 g/dL
Ht [3]: 38.2%
Lym [3]: 75%
MCHC [3]: 33.6%
MCV [3]: 64.1 fL
Mono [3]: 2.6%
Neu [3]: 20.4%
PT [3]: 12.4 s
Plat [3]: 111.7 x10_4/uL
RBC [3]: 595.8 x10_4/ul
Ret [3]: 10.1%
WBC [3]: 82.7 x10_2/uL
KIDNEY_L [3]: 0.8 g
KIDNEY_R [3]: 0.9 g
KIDNEY_TOTAL [3]: 1.7 g
LIVER [3]: 6.8 g
ALP [3]: 1220.2 IU/L
ALT [3]: 61.2 IU/L
AST [3]: 75.6 IU/L
BUN [3]: 9 mg/dL
CRE [3]: 0.1 mg/dL
Ca [3]: 10.7 mg/dL
Cl [3]: 106.6 meq/L
DBIL [3]: 0.008 mg/dL
GLC [3]: 162.6 mg/dL
IP [3]: 10.2 mg/dL
K [3]: 4 meq/L
LDH [3]: 52.2 IU/L
Na [3]: 140.8 meq/L
PL [3]: 126.6 mg/dL
RALB [3]: 2.5 g/dL
TBIL [3]: 0.042 mg/dL
TG [3]: 26.2 mg/dL
TP [3]: 5 g/dL
gamma-GTP [3]: 1.4 IU/L
TERMINAL_BW [4]: 208.8 g
APTT [4]: 16.1 s
Bas [4]: 0%
Eos [4]: 0.8%
Fbg [4]: 235.6 mg/dL
Hb [4]: 13.2 g/dL
Ht [4]: 39.1%
Lym [4]: 75.2%
MCHC [4]: 33.8%
MCV [4]: 63.3 fL
Mono [4]: 3%
Neu [4]: 20.6%
PT [4]: 12.5 s
Plat [4]: 112.7 x10_4/uL
RBC [4]: 617.8 x10_4/ul
Ret [4]: 9.3%
WBC [4]: 73.1 x10_2/uL
KIDNEY_L [4]: 0.9 g
KIDNEY_R [4]: 0.9 g
KIDNEY_TOTAL [4]: 1.8 g
LIVER [4]: 9.7 g
ALP [4]: 1591.2 IU/L
ALT [4]: 52.4 IU/L
AST [4]: 77.8 IU/L
BUN [4]: 15.2 mg/dL
CRE [4]: 0.2 mg/dL
Ca [4]: 11.2 mg/dL
Cl [4]: 104.6 meq/L
DBIL [4]: 0.014 mg/dL
GLC [4]: 178 mg/dL
IP [4]: 8.9 mg/dL
K [4]: 4.1 meq/L
LDH [4]: 80 IU/L
Na [4]: 141.4 meq/L
PL [4]: 146.6 mg/dL
RALB [4]: 2.5 g/dL
TBIL [4]: 0.03 mg/dL
TC [4]: 83.4 mg/dL
TG [4]: 87 mg/dL
TP [4]: 5.4 g/dL
gamma-GTP [4]: 1 IU/L
TERMINAL_BW [5]: 201 g
APTT [5]: 16.6 s
Bas [5]: 0.2%
Eos [5]: 1%
Fbg [5]: 250.4 mg/dL
Hb [5]: 13.4 g/dL
Ht [5]: 40.4%
Lym [5]: 78.6%
MCHC [5]: 33.1%
MCV [5]: 64 fL
Mono [5]: 4.2%
Neu [5]: 15.2%
PT [5]: 12.2 s
Plat [5]: 118.4 x10_4/uL
RBC [5]: 631.8 x10_4/ul
Ret [5]: 9.7%
WBC [5]: 85.9 x10_2/uL
KIDNEY_L [5]: 0.9 g
KIDNEY_R [5]: 0.9 g
KIDNEY_TOTAL [5]: 1.8 g
LIVER [5]: 8.2 g
ALP [5]: 1303.6 IU/L
ALT [5]: 60.8 IU/L
AST [5]: 79.2 IU/L
BUN [5]: 8.8 mg/dL
CRE [5]: 0.2 mg/dL
Ca [5]: 11.1 mg/dL
Cl [5]: 106.6 meq/L
DBIL [5]: 0.008 mg/dL
GLC [5]: 149 mg/dL
IP [5]: 9.3 mg/dL
K [5]: 3.8 meq/L
LDH [5]: 63 IU/L
Na [5]: 141.4 meq/L
PL [5]: 130.2 mg/dL
RALB [5]: 2.6 g/dL
TBIL [5]: 0.038 mg/dL
TG [5]: 47 mg/dL
TP [5]: 5.4 g/dL
gamma-GTP [5]: 1 IU/L
TERMINAL_BW [6]: 201.2 g
APTT [6]: 17.8 s
Bas [6]: 0%
Eos [6]: 1%
Fbg [6]: 259.6 mg/dL
Hb [6]: 13 g/dL
Ht [6]: 39%
Lym [6]: 72.4%
MCHC [6]: 33.2%
MCV [6]: 64.7 fL
Mono [6]: 3.4%
Neu [6]: 22.4%
PT [6]: 12.3 s
Plat [6]: 118.4 x10_4/uL
RBC [6]: 602.6 x10_4/ul
Ret [6]: 9.9%
WBC [6]: 87.3 x10_2/uL
KIDNEY_L [6]: 0.8 g
KIDNEY_R [6]: 0.8 g
KIDNEY_TOTAL [6]: 1.7 g
LIVER [6]: 7.3 g
ALP [6]: 996 IU/L
ALT [6]: 104.2 IU/L
AST [6]: 88.4 IU/L
BUN [6]: 9.2 mg/dL
CRE [6]: 0.1 mg/dL
Ca [6]: 11.1 mg/dL
Cl [6]: 106.2 meq/L
DBIL [6]: 0.004 mg/dL
GLC [6]: 137 mg/dL
IP [6]: 10 mg/dL
K [6]: 3.7 meq/L
LDH [6]: 52 IU/L
Na [6]: 140.8 meq/L
PL [6]: 143.4 mg/dL
RALB [6]: 2.5 g/dL
TBIL [6]: 0.05 mg/dL
TC [6]: 86.2 mg/dL
TG [6]: 20.6 mg/dL
TP [6]: 5.2 g/dL
gamma-GTP [6]: 1 IU/L
TERMINAL_BW [7]: 199.9 g
APTT [7]: 16.4 s
Bas [7]: 0.2%
Eos [7]: 1%
Fbg [7]: 251.6 mg/dL
Hb [7]: 13 g/dL
Ht [7]: 38.9%
Lym [7]: 77%
MCHC [7]: 33.2%
MCV [7]: 65.9 fL
Mono [7]: 3%
Neu [7]: 18.6%
PT [7]: 12.5 s
Plat [7]: 112.8 x10_4/uL
RBC [7]: 591.6 x10_4/ul
Ret [7]: 10.3%
WBC [7]: 89.9 x10_2/uL
KIDNEY_L [7]: 0.8 g
KIDNEY_R [7]: 0.8 g
KIDNEY_TOTAL [7]: 1.7 g
LIVER [7]: 6.8 g
ALP [7]: 1282.4 IU/L
ALT [7]: 84.4 IU/L
AST [7]: 83.2 IU/L
BUN [7]: 10 mg/dL
CRE [7]: 0.1 mg/dL
Ca [7]: 10.9 mg/dL
Cl [7]: 107.4 meq/L
DBIL [7]: 0.008 mg/dL
GLC [7]: 113.8 mg/dL
IP [7]: 10.6 mg/dL
K [7]: 3.7 meq/L
LDH [7]: 46 IU/L
Na [7]: 142.2 meq/L
PL [7]: 138.6 mg/dL
RALB [7]: 2.5 g/dL
TBIL [7]: 0.042 mg/dL
TG [7]: 20.6 mg/dL
TP [7]: 5.1 g/dL
gamma-GTP [7]: 1.2 IU/L
TERMINAL_BW [8]: 202.6 g
APTT [8]: 15.2 s
Bas [8]: 0%
Eos [8]: 1%
Fbg [8]: 244.6 mg/dL
Hb [8]: 12.8 g/dL
Ht [8]: 38.3%
Lym [8]: 76.2%
MCHC [8]: 33.5%
MCV [8]: 64.5 fL
Mono [8]: 3.6%
Neu [8]: 18.6%
PT [8]: 12.6 s
Plat [8]: 114.2 x10_4/uL
RBC [8]: 593.4 x10_4/ul
Ret [8]: 9.4%
WBC [8]: 98.2 x10_2/uL
KIDNEY_L [8]: 0.9 g
KIDNEY_R [8]: 0.9 g
KIDNEY_TOTAL [8]: 1.8 g
LIVER [8]: 8.8 g
ALP [8]: 1502.2 IU/L
ALT [8]: 42.6 IU/L
AST [8]: 74.6 IU/L
BUN [8]: 15.4 mg/dL
CRE [8]: 0.2 mg/dL
Ca [8]: 11.3 mg/dL
Cl [8]: 104.2 meq/L
DBIL [8]: 0.012 mg/dL
GLC [8]: 182.4 mg/dL
IP [8]: 8.8 mg/dL
K [8]: 4.3 meq/L
LDH [8]: 57 IU/L
Na [8]: 140.8 meq/L
PL [8]: 135.4 mg/dL
RALB [8]: 2.5 g/dL
TBIL [8]: 0.038 mg/dL
TG [8]: 53.2 mg/dL
TP [8]: 5.4 g/dL
gamma-GTP [8]: 1 IU/L
